# Data as given in article PMC3444172 (The Journal of organic chemistry, 2012).
# Entries after “also recorded” stand apart in the source; their conditions may differ. Like-named read-outs stand apart in the source and are kept apart here.
# Key:
# [1] = target: T1, M. tuberculosis lumazine synthase (recombinant homopentameric) (Mycobacterium tuberculosis, UniProt P9WHE9); format: biochemical; conditions: for Kcat (rate constant ES → E + P): pH 7
# [2] = target: T2, S. pombe lumazine synthase (recombinant homopentameric) (Schizosaccharomyces pombe, UniProt Q9UUB1); assay: Kinetic assay of lumazine synthase inhibitors, S. pombe enzyme; format: biochemical; conditions: for Kcat (rate constant ES → E + P) / Kis (ES + I ⇌ ESI) / Ks (substrate dissociation constant, E + S ⇌ ES): substrate 2 constant, substrate 1 varied, Tris·HCl pH 7.0
# T2 sequence (Q9UUB1 1-159): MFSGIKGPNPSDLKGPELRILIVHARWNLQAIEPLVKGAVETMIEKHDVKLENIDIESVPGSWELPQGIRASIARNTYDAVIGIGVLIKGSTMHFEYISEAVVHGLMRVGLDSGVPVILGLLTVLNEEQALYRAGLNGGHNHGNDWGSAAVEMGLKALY
# [3] = target: T3, E. coli riboflavin synthase (recombinant) (Escherichia coli, UniProt P0AFU8); assay: Kinetic assay of riboflavin synthase inhibitors, E. coli enzyme; format: biochemical; conditions: for Kcat (rate constant ES → E + P) / Kis (ES + I ⇌ ESI) / Ks (substrate dissociation constant, E + S ⇌ ES): substrate 3 varied, Tris·HCl pH 7.0
# [4] = target: M. tuberculosis riboflavin synthase (recombinant) (Mycobacterium tuberculosis, UniProt P9WK35); assay: Kinetic assay of riboflavin synthase inhibitors, M. tuberculosis enzyme; format: biochemical
# [5] = tested on: B. subtilis lumazine synthase (recombinant β60 capsid); conditions: previously reported compounds; cited from earlier work
# [6] = target: T1, M. tuberculosis lumazine synthase (recombinant homopentameric); conditions: previously reported compounds, cited from earlier work
# [7] = target: baker's yeast riboflavin synthase; conditions: cited from earlier work
# [8] = target: Ashbya gossypii riboflavin synthase; conditions: cited from earlier work
# [9] = target: T3, E. coli riboflavin synthase (recombinant); conditions: previously reported compounds, cited from earlier work
# [10] = substrate 2 constant, substrate 1 varied, Tris·HCl pH 7.0
# [11] = substrate 3 varied, Tris·HCl pH 7.0
# T1 sequence (P9WHE9 whole entry): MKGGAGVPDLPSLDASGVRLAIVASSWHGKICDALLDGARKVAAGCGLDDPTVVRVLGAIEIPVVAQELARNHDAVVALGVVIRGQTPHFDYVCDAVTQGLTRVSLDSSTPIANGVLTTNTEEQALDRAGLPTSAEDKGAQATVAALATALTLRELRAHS
# Chain of M. tuberculosis riboflavin synthase (recombinant) (P9WK35 whole entry): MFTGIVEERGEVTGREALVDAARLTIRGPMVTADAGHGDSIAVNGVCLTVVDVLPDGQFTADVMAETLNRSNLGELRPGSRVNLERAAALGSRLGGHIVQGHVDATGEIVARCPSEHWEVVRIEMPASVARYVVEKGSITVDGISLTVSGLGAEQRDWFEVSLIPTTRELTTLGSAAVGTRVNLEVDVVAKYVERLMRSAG
# T3 sequence (P0AFU8 whole entry): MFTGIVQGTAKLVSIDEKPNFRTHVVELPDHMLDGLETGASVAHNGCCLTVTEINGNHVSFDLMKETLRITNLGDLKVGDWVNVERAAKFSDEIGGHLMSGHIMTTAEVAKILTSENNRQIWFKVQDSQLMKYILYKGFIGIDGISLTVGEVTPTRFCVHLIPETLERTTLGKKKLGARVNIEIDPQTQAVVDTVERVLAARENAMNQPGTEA
Compound,Mechanism of inhibition [1],Kcat (rate constant ES → E + P) [1],"Kis (ES + I ⇌ ESI) [1, 10]","Ks (substrate dissociation constant, E + S ⇌ ES) [1, 10]",Mechanism of inhibition [2],Kcat (rate constant ES → E + P) [2],Kis (ES + I ⇌ ESI) [2],"Ks (substrate dissociation constant, E + S ⇌ ES) [2]",Mechanism of inhibition [3],Kcat (rate constant ES → E + P) [3],Kis (ES + I ⇌ ESI) [3],"Ks (substrate dissociation constant, E + S ⇌ ES) [3]",Mechanism of inhibition [4],"Kcat (rate constant ES → E + P) [4, 11]","Kis (ES + I ⇌ ESI) [4, 11]","Ks (substrate dissociation constant, E + S ⇌ ES) [4, 11]",other results
"Nc1c(OC[C@@H](O)[C@H](O)[C@@H](O)CO)[nH]c(=O)[nH]c1=O [Compound 29, 5-Amino-6-((2R,3R,4S)-2,3,4,5-tetrahydroxypentyloxy)pyrimidine-2,4(1H,3H)-dione]",Uncompetitive,0.18 ± 0.01 m^−1,>1000 µM,27 ± 2 µM,Partial,1.3 ± 0.0 m^−1,43 ± 8 µM,1.2 ± 0.1 µM,Uncompetitive,3.2 ± 0.1 m^−1,>1000 µM,2.5 ± 0.1 µM,Uncompetitive,0.25 ± 0.01 m^−1,577 ± 121 µM,5.6 ± 0.5 µM,
"O=c1[nH]c(OC[C@H](O)[C@H](O)[C@H](O)CO)c([N+](=O)[O-])c(=O)[nH]1 [Compound 22, 5-Nitro-6-((2S,3R,4R)-2,3,4,5-tetrahydroxypentyloxy)pyrimidine-2,4(1H,3H)-dione]",Competitive,0.19 ± 0.00 m^−1,,25 ± 2 µM,Partial,1.4 ± 0.0 m^−1,110 ± 40 µM,1.4 ± 0.1 µM,Competitive,3.3 ± 0.01 m^−1,,2.6 ± 0.2 µM,Partial,0.26 ± 0.01 m^−1,26 ± 6 µM,7.1 ± 0.7 µM,
"O=c1[nH]c(=O)c2[nH]c(=O)c(=O)n(C[C@H](O)[C@H](O)[C@H](O)CO)c2[nH]1 [Compound 81, 6,7-dihydro-6,7-dioxo-8-ribityllumazine]",,,,,,,,,,,,,,,,,Mechanism of inhibition [5]: Competitive; Kcat (rate constant ES → E + P) ([6]; Tris·HCl pH 7.0): 1.1 ± 0.1 m^−1; Mechanism of inhibition [6]: Competitive; Ki [7]: 0.025 µM; Ki [8]: 0.009 µM; Kcat (rate constant ES → E + P) ([9]; Tris·HCl pH 7.0): 15 ± 0 m^−1; Mechanism of inhibition [9]: Competitive
"CCOC(=O)C(=O)Nc1c(OC[C@H](O)[C@H](O)[C@H](O)CO)[nH]c(=O)[nH]c1=O [Compound 36, Ethyl 2-(2,4-dioxo-6-((2S,3R,4R)-2,3,4,5-tetrahydroxypentyloxy)1,2,3,4-tetrahydropyrimidin-5-ylamino)-2-oxoacetate]",Uncompetitive,0.26 ± 0.01 m^−1,>1000 µM,34 ± 5 µM,Uncompetitive,2.7 ± 0.1 m^−1,>1000 µM,6.4 ± 0.6 µM,Uncompetitive,5.8 ± 0.2 m^−1,>1000 µM,3.0 ± 0.3 µM,Uncompetitive,0.25 ± 0.01 m^−1,>1000 µM,5.0 ± 0.5 µM,"inhibitory activity in words ([1]; lumazine synthase inhibition, qualitative statement): completely inactive; also recorded: totally inactive; Ki (E + I ⇌ EI) [1, 10]: > 1000 µM"
"COC(=O)C(=O)Nc1c(OC[C@H](O)[C@H](O)[C@H](O)CO)[nH]c(=O)[nH]c1=O [Compound 37, Methyl 2-(2,4-dioxo-6-((2S,3R,4R)-2,3,4,5-tetrahydroxypentyloxy)1,2,3,4-tetrahydropyrimidin-5-ylamino)-2-oxoacetate]",Competitive,0.18 ± 0.00 m^−1,,29 ± 2 µM,Partial,1.5 ± 0.0 m^−1,56 ± 15 µM,1.7 ± 0.2 µM,Uncompetitive,3.4 ± 0.1 m^−1,>1000 µM,3.1 ± 0.2 µM,Uncompetitive,0.22 ± 0.01 m^−1,868 ± 305 µM,4.1 ± 0.4 µM,"Ki (E + I ⇌ EI) [4, 11]: 868 µM"
